The record followed here is the SangsterLogP compilation.

Broadly, the logP is a log measure of how a compound divides between an organic and an aqueous phase. High values mean a more lipophilic compound, low ones a more hydrophilic compound.

Structures are written as SMILES.

In turn, `Cc1cccc(C(C)C)c1` came in with a logP of 4.5.
To `Cc1ccc(C)cc1` belongs 3.42; to `CCc1cccc(C)c1`, 3.98; to `CCCCCCCCCc1ccccc1`, 7.11.
For `Cc1ccc(C)c(C)c1` the value was 3.91.
For the molecule `Cc1cccc(C)c1C`, the logP was determined as 3.78.
In turn, `CC(C)Cc1ccccc1` showed a log partition coefficient (logP) of 4.68.
Molecule `CCc1cc(C)ccc1C` came in with a logP of 4.43.
To `CCCc1cccc(C)c1` belongs 4.67; to `CCCc1ccc(C)cc1`, 4.6; to `CCc1ccc(C)c(C)c1`, 4.5.
In turn, `CCc1ccccc1C` gave a lipophilicity (logP) of 3.86.
As for `CCc1ccc(C)cc1`, the lipophilicity (logP) was 4.
To `CCc1cccc(C)c1C` belongs 4.34; to `CCc1c(C)cccc1C`, 4.28.
To `CCC(C)c1ccccc1` (stereo not given) belongs 4.57; to `CCc1ccc(C)cc1C`, 4.47.
Consider `Cc1ccccc1C(C)C`, for which the logP turned out to be 4.38.
With `CCCc1ccccc1C`, the logP stood at 4.5.
For `CCc1cc(C)cc(C)c1` the value was 4.55.
